Assay results reported in patent US10849874B2, “Use of composition for modulating angiogenesis” (National Sun Yat-sen University, priority 2015, dated 2020).

Experiments:
diabetic incised wound = test: Healing of diabetic incised wound (wound appearance and wound area); assay type: in vivo, Male Wistar rats; settings: STZ-diabetic rats
Description: (a) Preparation of Animal and Operation of Incised Wound in Diabetic Rat:
Male Wistar rats (400-450 g) were used in this experiment. The induction of diabetes was performed by using a citrate buffer solution to prepare streptozotocin (STZ, catalog No. 85882 FLUKA, Sigma, St. Louis, Mo., USA). The rats were anesthetized by 2.5% isoflurane and administered with STZ (60 mg/kg) by tail intravenous injection. A week after STZ injection, those rats with blood glucose levels more than 250 mg/dl were identified as successfully diabetic inducted rats. […] After the surgery of the incision of full-layered skins, the rats were randomly divided into two groups: (1) diabetic incised wound group (administered a normal lotion); and (2) EXC-B treating group (administered a lotion containing excavatolide B). The EXC-B treating group was treated with 1 mg/0.2 ml of excavatolide B in the lotion daily.
(§1) (c) Wound Observation and Area Calculation:
After being burned, the rats were anesthetized and then taken pictures according to experimentally designed dates. A series of pictures were taken by a digital camera (Coolpix P6000, Nikon, Japan) under the same condition (the diaphragm is 7.2, and the camera shutter is 1/60). A digital image capture system software (Diagnostic Instruments, Inc., Sterling Heights, Mich., U.S.A.) was used to analyze the captured wound pictures to calculate the wound area. […]

burn wound = test: Healing of burn wound (wound appearance and wound area); assay type: in vivo, Male Wistar rats; settings: rats; for wound healing depended on time (burned restoring area, area under the curve) compared to burn wound group and lotion treating group: day 0-27 (FIG. 4)
Description: (b) Preparation of Animal and Operation of Burn Wound:
Male Wistar rats (400-450 g) were used in this experiment. After the rats were anesthetized by 2.5% isoflurane, the present invention selected four burned locations (two locations beneath the scapula of the rat and two locations in the midline of the lumbar spine) on the back of the anesthetized rat. The skins of the burned locations were tightened, and a copper block (2×2 cm) which was preheated to 175° C. by a dry bath was used to closely touch these skins of the locations for 10 seconds to form burn wounds of full-layered skins. The copper block was appropriately moved in order to form a quadrilateral form of burn wound during the burning process. Attention was paid not to add extra pressure on the copper block in order to ensure the same burn pressure each time during the burning process.
as §1
After being burned, the rats were anesthetized and then taken pictures according to experimentally designed dates. A series of pictures were taken by a digital camera (Coolpix P6000, Nikon, Japan) under the same condition (the diaphragm is 7.2, and the camera shutter is 1/60). A digital image capture system software (Diagnostic Instruments, Inc., Sterling Heights, Mich., U.S.A.) was used to analyze the captured wound pictures to calculate the wound area. The data of the wound area at each observation point were respectively presented at percentage of the wound area relative to day zero.

burn wound tissue = test: HE staining of tissue section of burn wound; assay type: in vivo, Male Wistar rats; settings: rats, lotion containing EXC-B; HE stained tissue section (FIG. 5)
Description: Pathologic Tissue Slice and HE Staining
After the rats had suffered injuries for specific days according to experimental design they were humanely sacrificed, PBS containing heparin (0.2 U/ml) at 4 degrees Celsius was injected into aorta until PBS carrying no color flowed out of the vein. 4% paraformaldehyde at 4° C. was injected to fasten it, the wounded area was carefully taken out by surgical blades and immersed into 10% Formalin fixing solution to be reserved at 4° C. and fixed for several days. Next, the fixed tissue was dehydrated and wax infiltrated. The skin tissue was dehydrated and wax infiltrated by utilizing a tissue automatic processing system. Afterwards, the tissue was embedded by a paraffin embedding machine into paraffin blocks. After tissue blocks were sliced through a paraffin microtome, tissue slices were stained by using hematoxylin and eosin stain. Upon completion, tissue slices were mounted by micro-mount, and completed sample slices then were placed on an optical microscope for observation, the sample slices were further photographed and recorded by the digital image capture system.

[1] = tested on: vascular endothelial growth factor (VEGF); test: Staining of VEGF expression level in tissue of burn wound; assay type: in vivo, rat; settings: rats, lotion containing EXC-B
Description: (§2) (b) Immunohistochemistry Staining:
(§3) Mice were scarified by cervical dislocation. The skin tissues of the backs of the mice were collected, fixed with formalin buffer and embedded in paraffin. The tissue sections were treated with a graded alcohol bath after the paraffin-embedded tissue sections (2 μm) were deparaffinized by xylene. Next, the sections reacted with 0.3% hydrogen peroxide for 30 minutes to remove endogenous peroxidase. After the paraffin-embedded tissue sections reacted with a protein K in a 4% phosphate buffer for 20 minutes at 37° C., the paraffin-embedded tissue sections were washed with 4% phosphate buffer and then blocked with horse serum diluted by phosphate buffer for 1 hr. Next, the sections were incubated with a diluted target protein antibody for 18-20 hr at 4° C. in a humid environment. After recycling the antibody, the horse serum was reused to incubate the sections for 1 hr and the sections subsequently reacted with an added corresponding secondary antibody for 90 minutes. After the sections reacted with ABC kit, DBA was used to produce color reaction, and the sections were air-dried with a graded alcohol bath and covered with a cover glass. The completed sample section was placed in an optical microscope (DM 6000, Leica Inc, Germany) and a stereomicroscope (APO Z16, Leica Inc. Singapore). […]

[2] = tested on: angiogenesis (blood vessels marked by vWF); test: Staining of angiogenesis (blood vessels marked by vWF) in tissue of burn wound; assay type: in vivo, rat; settings: rats, lotion containing EXC-B, versus silver sulphadiazine treating group (FIG. 6)
Description: as §2, §3

atopic eczema = test: DNCB-induced atopic eczema model, image analysis of skin appearance; assay type: in vivo; settings: balb/c mice
Description: (a) Preparation of Animal and Induction of Atopic Eczema:
(§4) The balb/c mice were used in this experiment. The method for inducing atopic eczema comprised: (1) prepared 1% DNCB in olive oil/acetone (1:4); and (2) applied 1% DNCB on the shaved skins of the backs of balb/c mice at day 1, 3, 9, and 11, respectively. The balb/c mice were randomly divided into three groups: (A) the control group; (B) the atopic eczema group; and (C) the EXC-B treating group. The EXC-B treating group was treated with excavatolide B for seven consecutive days starting from day 15. Next, the present invention assessed the treating effect of EXC-B on atopic eczema by image analysis of the appearance.

VEGF = test: Staining of VEGF expression level in tissue of atopic eczema; assay type: in vivo; settings: balb/c mice, 50 μg/0.2 ml of excavatolide B in lotion (FIG. 8)
Description: as §4, §2
(§5) Mice were scarified by cervical dislocation. The skin tissues of the backs of the mice were collected, fixed with formalin buffer and embedded in paraffin. The tissue sections were treated with a graded alcohol bath after the paraffin-embedded tissue sections (2 μm) were deparaffinized by xylene. Next, the sections reacted with 0.3% hydrogen peroxide for 30 minutes to remove endogenous peroxidase. After the paraffin-embedded tissue sections reacted with a protein K in a 4% phosphate buffer for 20 minutes at 37° C., the paraffin-embedded tissue sections were washed with 4% phosphate buffer and then blocked with horse serum diluted by phosphate buffer for 1 hr. […]

substance P = test: Staining of itchy factor (substance P as marker) in atopic eczema; assay type: in vivo; settings: balb/c mice, 50 μg/0.2 ml of excavatolide B in lotion (FIG. 9)
Description: as §4, §2, §5

filaggrin = test: Staining of regulating factor for skin barrier function (filaggrin as marker) in atopic eczema; assay type: in vivo; settings: balb/c mice, 50 μg/0.2 ml of excavatolide B in lotion (FIG. 10)
Description: as §4, §2, §5

excavatolide B [EXC-B]
wound healing (appearance, image analysis) compared to the diabetic incised wound group (diabetic incised wound; 1 mg/0.2 ml of excavatolide B in lotion daily, topical, appearance at 4-25 days after incised injury (FIG. 1)): significantly improved
wound healing (wound restoring area depended on time) compared to the diabetic incised wound group (diabetic incised wound; 1 mg/0.2 ml of excavatolide B in lotion, at day 7, 21, and 28 (FIG. 2)): significantly improved
wound healing depended on time (burned restoring area, area under the curve) compared to burn wound group and lotion treating group (burn wound; 10 μg EXC-B treating group): significantly accelerate wound healing
wound healing (appearance, image analysis) after burn injury (burn wound; 10 μg/0.2 ml of EXC-B in lotion, appearance at 2-24 days after burn injury (FIG. 3 K-O)): significantly improved
wound healing depended on time (burned restoring area, area under the curve) compared to burn wound group and lotion treating group (burn wound; 50 μg EXC-B treating group): significantly accelerate wound healing
wound healing (appearance, image analysis) after burn injury (burn wound; 50 μg/0.2 ml of EXC-B in lotion, appearance at 2-24 days after burn injury (FIG. 3 P-T)): significantly improved
tissue changes induced by burn injury (thickening of epithelial layer, damages to dermis, infiltration of neutrophils) (burn wound tissue): significantly improved
expression level of the VEGF of the burned tissue ([1]; versus lotion treating group (FIG. 6)): substantially increased
treating effect on VEGF expression of the burned tissue relative to silver sulphadiazine ([1]; versus silver sulphadiazine treating group (FIG. 6)): better than the effect of the silver sulphadiazine
rate of vascular proliferation (blood vessels marked by vWF) [2]: higher than that of the silver sulphadiazine treating group
side effects of the clinical treatment, such as skin dryness and albinism (atopic eczema; 50 μg/0.2 ml of excavatolide B in lotion (FIG. 7)): no side effects of the clinical treatment were observed
condition of the treated skin (inflammations, scratched wounds) (atopic eczema; 50 μg/0.2 ml of excavatolide B in lotion, seven consecutive days from day 15 (FIG. 7)): significantly better than the skin of the atopic eczema
increased expression of the VEGF in the tissue of atopic eczema (VEGF): inhibited
itchy factors (the substance P as the marker) in the tissue of the skin (substance P): significantly inhibited
decrease of the regulating factor (filaggrin as the marker) for skin barrier function (filaggrin): recovered
